Results as given in the supplement of paper PMC10307832.

Assays:
Test in all cases: relative viability (nuclei count vs DMSO), 5 days (fraction); higher = more cells survive
IDH-C35 + Phenformin = compound: Cc1ccccc1C(C(=O)NC1CCCCC1)N(C(=O)Cn1ccnc1C)c1cccc(F)c1 [IDH-C35] + N=C(N)NC(=N)NCCc1ccccc1 [Phenformin] (partner 250 µM)
In short: (§1)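 The day after seeding in 1536-well plates, lung cancer cell lines were treated by pin tool with a single drug, or with a fixed anchor-drug dose together with five library-drug doses (not always all listed) in √10 steps. After 5 days, a combined fix-and-stain solution (final 0.05% Triton X-100, 1% formaldehyde, 1 ug/ml Hoechst) was added. Nuclei counted on 4× images gave relative viability as treated counts over vehicle counts, reported as the median of duplicate plates.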

[1] = compound: CC1=C(C(=NN1)C)CC2=C(C3=C(S2)N(C(=O)N(C3=O)C)CC(C)C)C(=O)N4C[C@@H](CO4)O + CS(=O)(=O)N1CCN(Cc2cc3nc(-c4cccc5[nH]ncc45)nc(N4CCOCC4)c3s2)CC1 [Pictilisib] (partner 1 µM)
In short: as §1

[2] = compound: CC1=C(C(=NN1)C)CC2=C(C3=C(S2)N(C(=O)N(C3=O)C)CC(C)C)C(=O)N4C[C@@H](CO4)O + NC(=O)Nc1cc(-c2cccc(F)c2)sc1C(=O)N[C@H]1CCCNC1 [AZD7762] (partner 0.2 µM)
In short: as §1

[3] = compound: CC1=C(C(=NN1)C)CC2=C(C3=C(S2)N(C(=O)N(C3=O)C)CC(C)C)C(=O)N4C[C@@H](CO4)O + CC(=O)Nc1cccc(-n2c(=O)n(C3CC3)c(=O)c3c(Nc4ccc(I)cc4F)n(C)c(=O)c(C)c32)c1 [Trametinib] (partner 0.02 µM)
In short: as §1

Cell Line	relative viability (IDH-C35 + Phenformin; first compound 0.08 µM)	relative viability (IDH-C35 + Phenformin; first compound 0.253 µM)	relative viability (IDH-C35 + Phenformin; first compound 0.8 µM)	relative viability (IDH-C35 + Phenformin; first compound 2.53 µM)	relative viability (IDH-C35 + Phenformin; first compound 8 µM)	relative viability ([1]; first compound 0.0025 µM)	relative viability ([1]; first compound 0.007906 µM)	relative viability ([1]; first compound 0.025 µM)	relative viability ([1]; first compound 0.07906 µM)	relative viability ([1]; first compound 0.25 µM)	relative viability ([2]; first compound 0.0025 µM)	relative viability ([2]; first compound 0.007906 µM)	relative viability ([2]; first compound 0.025 µM)	relative viability ([2]; first compound 0.07906 µM)	relative viability ([2]; first compound 0.25 µM)	relative viability ([3]; first compound 0.0025 µM)	relative viability ([3]; first compound 0.007906 µM)	relative viability ([3]; first compound 0.025 µM)	relative viability ([3]; first compound 0.07906 µM)	relative viability ([3]; first compound 0.25 µM)
201T	0.469	0.431	0.436	0.466	0.438	0.708	0.704	0.688	0.653	0.679	0.67	0.673	0.573	0.586	0.677	0.715	0.708	0.713	0.739	0.694
NCI-H2170	0.393	0.415	0.403	0.425	0.412	0.228	0.293	0.298	0.341	0.297	0.899	0.925	0.854	0.895	0.906	0.909	0.966	0.956	0.756	0.94
NCI-H460	0.547	0.527	0.502	0.488	0.531	0.432	0.492	0.356	0.367	0.387	0.726	0.65	0.562	0.551	0.596	0.158	0.149	0.186	0.136	0.206
HCC-15	0.521	0.464	0.501	–	0.45	0.76	0.911	0.846	0.782	0.856	1.34	1.37	1.13	1.17	1.29	0.411	0.365	0.378	0.407	0.415
LCLC-103H	0.308	0.338	0.344	0.364	0.34	0.682	0.615	0.704	0.517	0.721	0.793	0.914	0.768	0.807	0.749	0.681	0.689	0.664	0.688	0.661
NCI-H441	1.07	0.866	0.72	1.01	0.807	0.575	0.446	0.431	0.616	0.656	1.44	1.23	1.12	1.3	1.16	0.532	0.424	0.458	0.478	0.436
EPLC-272H	0.33	0.275	0.314	0.294	0.296	0.317	0.293	0.29	0.314	0.384	0.252	0.21	0.225	0.144	0.231	0.317	0.236	0.31	0.295	0.352
